Measured values published in patent US7192906B2, “Substituted pyrazole derivatives, production process thereof, and herbicide compositions containing the derivatives” (SDS Biotech K.K., priority 2001, dated 2007).

Tests used:
Format in all cases: in vivo
Echinochloa crusgalli = experiment: Test Example 3 paddy field treatment; details: Table 6, paddy field treatment, active ingredient 1 kg per hectare, 21st day after dropping, index 0-5
Method in brief: (§1)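 Weed seeds sown in puddled paddy soil under 4 cm water, with two-leaf Koshihikari rice transplanted; 10 days later a wettable powder was applied to the water surface at 1 kg active ingredient/ha. Scored 21 days after application on a 0–5 scale (0 = <10%, 5 = ≥90% herbicidal effect or phytotoxicity).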

Scirpus juncoides = experiment: Test Example 3 paddy field treatment; details: Table 6, paddy field treatment, active ingredient 1 kg per hectare, 21st day after dropping, index 0-5
Method in brief: as §1

Monochoria vaginalis = experiment: Test Example 3 paddy field treatment; details: Table 6, paddy field treatment, active ingredient 1 kg per hectare, 21st day after dropping, index 0-5
Method in brief: as §1

Ammannia multiflora = experiment: Test Example 3 paddy field treatment; details: Table 6, paddy field treatment, active ingredient 1 kg per hectare, 21st day after dropping, index 0-5
Method in brief: as §1

Setaria viridis [1] = experiment: Test Example 2 upland soil treatment; details: Table 5, upland soil treatment, index 0-5
Method in brief: (§2)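 Visual 0–5 grading of herbicidal effect or phytotoxicity, made 21 days after a single pre-emergence soil-surface application at 1 kg a.i./ha.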

Digitaria adscendens [2] = experiment: Test Example 2 upland soil treatment; details: Table 5, upland soil treatment, index 0-5
Method in brief: as §2

Stellaria media [3] = experiment: Test Example 2 upland soil treatment; details: Table 5, upland soil treatment, index 0-5
Method in brief: as §2

Chenopodium album [4] = experiment: Test Example 2 upland soil treatment; details: Table 5, upland soil treatment, index 0-5
Method in brief: as §2

Rice (Oryza sativa) = experiment: Test Example 3 paddy field treatment, crop phytotoxicity; details: Table 6, paddy field treatment, transplanted rice, active ingredient 1 kg per hectare, 21st day after dropping, index 0-5
Method in brief: as §1

soybean (Glycine max) [5] = experiment: Test Example 1 upland field foliage treatment, crop phytotoxicity; details: Table 4, upland field foliage treatment, index 0-5
Method in brief: (§3)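 Scores are visual 0–5 ratings of herbicidal effect or crop injury (0: under 10%; 5: 90% or more) taken 21 days after treatment. Plants grew from seed in upland soil for 14 days, then foliage received the compound as a water-diluted wettable powder at 1 kg/ha active ingredient.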

[6] = system: wheat (Triticum aestivum); experiment: as above; details: Table 4, upland field foliage treatment, index 0-5
Method in brief: as §3

soybean (Glycine max) [7] = experiment: Test Example 2 upland soil treatment, crop phytotoxicity; details: Table 5, upland soil treatment, index 0-5
Method in brief: as §2

[8] = system: wheat (Triticum aestivum); experiment: as above; details: Table 5, upland soil treatment, index 0-5
Method in brief: as §2

Setaria viridis [9] = experiment: Test Example 1 upland field foliage treatment; details: Table 4, upland field foliage treatment, index 0-5
Method in brief: as §3

Digitaria adscendens [10] = experiment: Test Example 1 upland field foliage treatment; details: Table 4, upland field foliage treatment, index 0-5
Method in brief: as §3

Stellaria media [11] = experiment: Test Example 1 upland field foliage treatment; details: Table 4, upland field foliage treatment, index 0-5
Method in brief: as §3

Chenopodium album [12] = experiment: Test Example 1 upland field foliage treatment; details: Table 4, upland field foliage treatment, index 0-5
Method in brief: as §3

## CNC(=O)C(Cn1cc(C)c(-c2ccc(OC(F)F)cc2)n1)=NOC [Compound 65]
Echinochloa crusgalli
  Herbicidal activity EC: 5 (herbicidal effect of not less than 90%, or phytotoxicity of 90% or more)
Scirpus juncoides
  Herbicidal activity SJ: 5 (herbicidal effect of not less than 90%, or phytotoxicity of 90% or more)
Monochoria vaginalis
  Herbicidal activity MV: 5 (herbicidal effect of not less than 90%, or phytotoxicity of 90% or more)
Ammannia multiflora
  Herbicidal activity AM: 5 (herbicidal effect of not less than 90%, or phytotoxicity of 90% or more)
Setaria viridis [1]
  Herbicidal activity SV: Setaria viridis: 5 (herbicidal effect of not less than 90%, or phytotoxicity of 90% or more)
Digitaria adscendens [2]
  Herbicidal activity DA: Digitaria adscendens: 5 (herbicidal effect of not less than 90%, or phytotoxicity of 90% or more)
Stellaria media [3]
  Herbicidal activity SM: Stellaria media: 5 (herbicidal effect of not less than 90%, or phytotoxicity of 90% or more)
Chenopodium album [4]
  Herbicidal activity CA: Chenopodium album: 5 (herbicidal effect of not less than 90%, or phytotoxicity of 90% or more)
Rice (Oryza sativa)
  Herbicidal activity (phytotoxicity) OS: 0 (herbicidal effect of not less than 0% and less than 10%, or phytotoxicity of 0% or more and less than 10%)
Soybean (Glycine max) [5]
  Herbicidal activity (phytotoxicity) GM: Soybean (Glycine max): 0 (herbicidal effect of not less than 0% and less than 10%, or phytotoxicity of 0% or more and less than 10%)
[6]
  Herbicidal activity (phytotoxicity) TA: Wheat (Triticum aestivum): 0 (herbicidal effect of not less than 0% and less than 10%, or phytotoxicity of 0% or more and less than 10%)
Soybean (Glycine max) [7]
  Herbicidal activity (phytotoxicity) GM: Soybean (Glycine max): 0 (herbicidal effect of not less than 0% and less than 10%, or phytotoxicity of 0% or more and less than 10%)
[8]
  Herbicidal activity (phytotoxicity) TA: Wheat (Triticum aestivum): 0 (herbicidal effect of not less than 0% and less than 10%, or phytotoxicity of 0% or more and less than 10%)
Setaria viridis [9]
  Herbicidal activity SV: Setaria viridis: 5 (herbicidal effect of not less than 90%, or phytotoxicity of 90% or more)
Digitaria adscendens [10]
  Herbicidal activity DA: Digitaria adscendens: 5 (herbicidal effect of not less than 90%, or phytotoxicity of 90% or more)
Stellaria media [11]
  Herbicidal activity SM: Stellaria media: 5 (herbicidal effect of not less than 90%, or phytotoxicity of 90% or more)
Chenopodium album [12]
  Herbicidal activity CA: Chenopodium album: 5 (herbicidal effect of not less than 90%, or phytotoxicity of 90% or more)

## CNC(=O)C(Cn1cc(C)c(-c2ccc(OC(F)(F)CF)cc2)n1)=NOC [Compound 67]
Echinochloa crusgalli
  Herbicidal activity EC: 5 (herbicidal effect of not less than 90%, or phytotoxicity of 90% or more)
Scirpus juncoides
  Herbicidal activity SJ: 5 (herbicidal effect of not less than 90%, or phytotoxicity of 90% or more)
Monochoria vaginalis
  Herbicidal activity MV: 5 (herbicidal effect of not less than 90%, or phytotoxicity of 90% or more)
Ammannia multiflora
  Herbicidal activity AM: 4 (herbicidal effect of not less than 70% and less than 90%, or phytotoxicity of 70% or more and less than 90%)
Setaria viridis [1]
  Herbicidal activity SV: Setaria viridis: 4 (herbicidal effect of not less than 70% and less than 90%, or phytotoxicity of 70% or more and less than 90%)
Digitaria adscendens [2]
  Herbicidal activity DA: Digitaria adscendens: 4 (herbicidal effect of not less than 70% and less than 90%, or phytotoxicity of 70% or more and less than 90%)
Stellaria media [3]
  Herbicidal activity SM: Stellaria media: 5 (herbicidal effect of not less than 90%, or phytotoxicity of 90% or more)
Chenopodium album [4]
  Herbicidal activity CA: Chenopodium album: 5 (herbicidal effect of not less than 90%, or phytotoxicity of 90% or more)
Rice (Oryza sativa)
  Herbicidal activity (phytotoxicity) OS: 0 (herbicidal effect of not less than 0% and less than 10%, or phytotoxicity of 0% or more and less than 10%)
Soybean (Glycine max) [5]
  Herbicidal activity (phytotoxicity) GM: Soybean (Glycine max): 0 (herbicidal effect of not less than 0% and less than 10%, or phytotoxicity of 0% or more and less than 10%)
[6]
  Herbicidal activity (phytotoxicity) TA: Wheat (Triticum aestivum): 0 (herbicidal effect of not less than 0% and less than 10%, or phytotoxicity of 0% or more and less than 10%)
Soybean (Glycine max) [7]
  Herbicidal activity (phytotoxicity) GM: Soybean (Glycine max): 0 (herbicidal effect of not less than 0% and less than 10%, or phytotoxicity of 0% or more and less than 10%)
[8]
  Herbicidal activity (phytotoxicity) TA: Wheat (Triticum aestivum): 0 (herbicidal effect of not less than 0% and less than 10%, or phytotoxicity of 0% or more and less than 10%)
Setaria viridis [9]
  Herbicidal activity SV: Setaria viridis: 4 (herbicidal effect of not less than 70% and less than 90%, or phytotoxicity of 70% or more and less than 90%)
Digitaria adscendens [10]
  Herbicidal activity DA: Digitaria adscendens: 5 (herbicidal effect of not less than 90%, or phytotoxicity of 90% or more)
Stellaria media [11]
  Herbicidal activity SM: Stellaria media: 4 (herbicidal effect of not less than 70% and less than 90%, or phytotoxicity of 70% or more and less than 90%)
Chenopodium album [12]
  Herbicidal activity CA: Chenopodium album: 5 (herbicidal effect of not less than 90%, or phytotoxicity of 90% or more)

## CNC(=O)C(Cn1cc(C)c(-c2ccc(F)c(OC)c2)n1)=NOC [Compound 77]
Echinochloa crusgalli
  Herbicidal activity EC: 5 (herbicidal effect of not less than 90%, or phytotoxicity of 90% or more)
Scirpus juncoides
  Herbicidal activity SJ: 5 (herbicidal effect of not less than 90%, or phytotoxicity of 90% or more)
Monochoria vaginalis
  Herbicidal activity MV: 5 (herbicidal effect of not less than 90%, or phytotoxicity of 90% or more)
Ammannia multiflora
  Herbicidal activity AM: 5 (herbicidal effect of not less than 90%, or phytotoxicity of 90% or more)
Setaria viridis [1]
  Herbicidal activity SV: Setaria viridis: 4 (herbicidal effect of not less than 70% and less than 90%, or phytotoxicity of 70% or more and less than 90%)
Digitaria adscendens [2]
  Herbicidal activity DA: Digitaria adscendens: 5 (herbicidal effect of not less than 90%, or phytotoxicity of 90% or more)
Stellaria media [3]
  Herbicidal activity SM: Stellaria media: 5 (herbicidal effect of not less than 90%, or phytotoxicity of 90% or more)
Chenopodium album [4]
  Herbicidal activity CA: Chenopodium album: 5 (herbicidal effect of not less than 90%, or phytotoxicity of 90% or more)
Rice (Oryza sativa)
  Herbicidal activity (phytotoxicity) OS: 0 (herbicidal effect of not less than 0% and less than 10%, or phytotoxicity of 0% or more and less than 10%)
Soybean (Glycine max) [5]
  Herbicidal activity (phytotoxicity) GM: Soybean (Glycine max): 0 (herbicidal effect of not less than 0% and less than 10%, or phytotoxicity of 0% or more and less than 10%)
[6]
  Herbicidal activity (phytotoxicity) TA: Wheat (Triticum aestivum): 0 (herbicidal effect of not less than 0% and less than 10%, or phytotoxicity of 0% or more and less than 10%)
Soybean (Glycine max) [7]
  Herbicidal activity (phytotoxicity) GM: Soybean (Glycine max): 0 (herbicidal effect of not less than 0% and less than 10%, or phytotoxicity of 0% or more and less than 10%)
[8]
  Herbicidal activity (phytotoxicity) TA: Wheat (Triticum aestivum): 0 (herbicidal effect of not less than 0% and less than 10%, or phytotoxicity of 0% or more and less than 10%)
Setaria viridis [9]
  Herbicidal activity SV: Setaria viridis: 3 (herbicidal effect of not less than 50% and less than 70%, or phytotoxicity of 50% or more and less than 70%)
Digitaria adscendens [10]
  Herbicidal activity DA: Digitaria adscendens: 5 (herbicidal effect of not less than 90%, or phytotoxicity of 90% or more)
Stellaria media [11]
  Herbicidal activity SM: Stellaria media: 3 (herbicidal effect of not less than 50% and less than 70%, or phytotoxicity of 50% or more and less than 70%)
Chenopodium album [12]
  Herbicidal activity CA: Chenopodium album: 5 (herbicidal effect of not less than 90%, or phytotoxicity of 90% or more)
